Our source for the TGI values is PubChem BioAssay (NCI).

Test systems include HS 578T breast; MDA-MB-435; NCI-H23 lung; NCI/ADR-RES ovarian; OVCAR-3 ovarian; UO-31 renal; SW-620 colon; OVCAR-8 ovarian; ACHN renal; DU-145 prostate; TK-10 renal; 786-0 renal; SF-539 CNS; NCI-H522 lung; NCI-H226 lung; MALME-3M melanoma; A549 NSCLC; IGROV1 ovarian; LOX IMVI melanoma.
Assay in all cases: inhibition of tumour cell growth, NCI panel, 48 h

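Grown in 96-well plates, cells were treated for 48 hours with each compound at five concentrations. Insufficient inhibition: endpoint recorded as highest concentration tested. TGI: concentration producing complete growth inhibition.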 Some results are limits rather than exact numbers.

As to `CCCCCCCCCCCCCC/C(=C/OCC[N+](C)(C)C)OC(C)=O` (tested in a mixture with another compound), the TGI worked out at 5.26 µM with HS 578T breast; 7.49 µM with MDA-MB-435; 7.65 µM with NCI-H23 lung; 44.2 µM with NCI/ADR-RES ovarian; 8.21 µM in the assay with OVCAR-3 ovarian; 30 µM in the assay with UO-31 renal. Besides, the TGI was found to be 17.5 µM in the assay on SW-620 colon; 4.15 µM with OVCAR-8 ovarian; 14 µM in the assay on ACHN renal; 17.1 µM in the assay with DU-145 prostate; 3.76 µM with TK-10 renal; 2.34 µM in the assay with 786-0 renal. Besides, the TGI in the assay with SF-539 CNS was 5.88 µM; in the assay on NCI-H522 lung, 5.07 µM; with NCI-H226 lung it was 14.7 µM; in the assay with MALME-3M melanoma it was 21.2 µM; in the assay with A549 NSCLC, 6.87 µM; in the assay on IGROV1 ovarian, 3.96 µM.

`O=C(C1=CCC2(CC1)OCCO2)N(Cc1ccccc1)c1ccccc1I`: the TGI in the assay with HS 578T breast turned out to be 22.7 µM; in the assay with MDA-MB-435, 50.7 µM; in the assay with NCI-H23 lung it was 44.1 µM; in the assay with NCI/ADR-RES ovarian it was 32.8 µM; with OVCAR-3 ovarian, 38.6 µM; in the assay on UO-31 renal, 33.3 µM. Moreover, the TGI in the assay on SW-620 colon is above 100 µM; in the assay with OVCAR-8 ovarian, 30.1 µM; with ACHN renal it was 43.2 µM; with DU-145 prostate, 63.6 µM; with TK-10 renal, 44.5 µM; with 786-0 renal, 43 µM. Also, the results for the TGI in the assay with NCI-H226 lung, in the assay with A549 NSCLC and in the assay with LOX IMVI melanoma were 34.8 µM, above 100 µM and 56.8 µM, respectively.

For `O=C(c1cccs1)N(C(=S)OCc1ccccn1)c1ccccc1`, the TGI is above 100 µM in the assay with HS 578T breast; above 100 µM in the assay with MDA-MB-435; above 100 µM in the assay on NCI-H23 lung; above 100 µM with NCI/ADR-RES ovarian; above 100 µM in the assay on OVCAR-3 ovarian; 96.7 µM in the assay on UO-31 renal. The TGI in the assay on SW-620 colon, with OVCAR-8 ovarian, in the assay with ACHN renal, in the assay on DU-145 prostate, with TK-10 renal and in the assay on 786-0 renal was above 100 µM throughout. In addition, the TGI with SF-539 CNS is above 100 µM; in the assay on NCI-H226 lung, above 100 µM; with MALME-3M melanoma it was 44 µM; in the assay on IGROV1 ovarian it was above 100 µM; in the assay on LOX IMVI melanoma, above 100 µM.

As to `CC(C)Nc1n[nH]c(=O)n1C(C)C`, the TGI in the assay on HS 578T breast, with MDA-MB-435, with NCI-H23 lung, in the assay with NCI/ADR-RES ovarian, in the assay with OVCAR-3 ovarian and in the assay with UO-31 renal was above 100 µM throughout. Besides, the TGI in the assay with SW-620 colon, in the assay on OVCAR-8 ovarian, in the assay on ACHN renal, with DU-145 prostate, with TK-10 renal and in the assay on 786-0 renal was above 100 µM in each case. The TGI in the assay on SF-539 CNS, in the assay with NCI-H226 lung, in the assay with A549 NSCLC, in the assay with IGROV1 ovarian and in the assay with LOX IMVI melanoma was above 100 µM throughout.

As for `c1csc(-c2cc(-c3ccsc3)c(-c3cccs3)s2)c1`, the TGI in the assay on HS 578T breast, in the assay with MDA-MB-435, in the assay with NCI-H23 lung, with NCI/ADR-RES ovarian, in the assay with OVCAR-3 ovarian and in the assay on UO-31 renal was above 100 µM each time. The TGI in the assay with SW-620 colon, in the assay with OVCAR-8 ovarian, with ACHN renal, in the assay with DU-145 prostate, in the assay with TK-10 renal and with 786-0 renal was above 100 µM throughout. The TGI with SF-539 CNS, with NCI-H522 lung, with NCI-H226 lung, in the assay on MALME-3M melanoma and with A549 NSCLC was above 100 µM throughout.

Take `c1ccc(SCCP(CCP(c2ccccc2)c2ccccc2)c2ccccc2)cc1` (stereo unspecified): the TGI in the assay with HS 578T breast was above 100 µM; in the assay with MDA-MB-435, above 100 µM; in the assay with NCI-H23 lung, above 54.1 µM; in the assay on NCI/ADR-RES ovarian, above 100 µM; with OVCAR-3 ovarian, 39.9 µM; in the assay with UO-31 renal, 53.9 µM. Besides, the TGI in the assay with SW-620 colon is above 100 µM; in the assay on OVCAR-8 ovarian it was above 100 µM; in the assay with ACHN renal, above 76 µM; in the assay on DU-145 prostate it was above 100 µM; in the assay on TK-10 renal, above 100 µM; in the assay with 786-0 renal, above 100 µM. Further, the TGI in the assay with SF-539 CNS is above 100 µM; in the assay with NCI-H226 lung, above 87.6 µM; with MALME-3M melanoma it was above 59.1 µM; with A549 NSCLC it was above 100 µM; in the assay with IGROV1 ovarian it was above 100 µM.

In the case of `COc1cccc2c1[C@H](OC)[C@]13O[C@@]1(C2=O)[C@H](O)[C@H](C)[C@@](O)(C(=O)[C@@H]1O[C@H]1C)[C@@H]3O`, the TGI with HS 578T breast is 0.618 µM; in the assay on MDA-MB-435, 0.518 µM; with NCI-H23 lung, 0.541 µM; in the assay on NCI/ADR-RES ovarian, above 100 µM; in the assay on OVCAR-3 ovarian it was 1.96 µM; with UO-31 renal it was 0.647 µM. Besides, the TGI is 0.61 µM in the assay on OVCAR-8 ovarian; 0.7 µM with ACHN renal; 10.7 µM with TK-10 renal; 2.52 µM in the assay on 786-0 renal; 0.975 µM in the assay on SF-539 CNS; 0.403 µM with NCI-H522 lung. Further, the TGI with NCI-H226 lung came out at 1.2 µM; in the assay on MALME-3M melanoma it was 0.523 µM; in the assay with A549 NSCLC it was 0.729 µM; in the assay with IGROV1 ovarian, 0.576 µM; with LOX IMVI melanoma, 0.648 µM.

`CC1=CC(=O)c2cccc(O)c2C1=O`: the TGI in the assay with HS 578T breast is 7.13 µM; in the assay with MDA-MB-435 it was 3.28 µM; in the assay with NCI-H23 lung, 7.32 µM; in the assay on OVCAR-3 ovarian, 2.96 µM; in the assay on UO-31 renal, 3.28 µM; with SW-620 colon, 4.08 µM. Besides, the TGI in the assay on OVCAR-8 ovarian came to 15.4 µM; with ACHN renal, 3.17 µM; with DU-145 prostate, 20.6 µM; in the assay with TK-10 renal it was 5.05 µM; in the assay on 786-0 renal, 3.09 µM; with SF-539 CNS, 12.3 µM. In addition, the TGI in the assay with NCI-H522 lung is 5.42 µM; in the assay on NCI-H226 lung, 14.4 µM; in the assay on MALME-3M melanoma it was 2.98 µM; with A549 NSCLC it was 34.7 µM; in the assay on IGROV1 ovarian, 26 µM; with LOX IMVI melanoma, 8.6 µM.
